Laboratory results taken from patent US20240285808A1, “MOLECULAR PROBES FOR IN VIVO DETECTION OF ALDEHYDES” (The General Hospital Corporation, priority 2021, published 2024).
Where “and” joins values, the source holds several entries; their conditions need not be identical. Equal values may be shown once.

Assays:
[1] = biological target: T1, BSA-ALD (oxidized bovine serum albumin containing allysine aldehyde groups) (Bos taurus, UniProt P02769); assay: Relaxivity measurements with BSA-Ald; assay type: binding; details: for r1, +BSA-Ald / r1, Bound to BSA-Ald: 1.4 T; for r1, +BSA-Ald / r1, Bound to BSA-Ald / increase of r1 in BSA^Ald compared to PBS value: 37° C.; for r1, +BSA-Ald: BSA-Ald 10 mg/mL; for r1, Bound to BSA-Ald: protein-bound species after NaBH3CN and ultrafiltration; for increase of r1 in BSA^Ald compared to PBS value: 1.41 T
T1 construct: made in house; host or cells: no expression host: BSA oxidised chemically with sodium ascorbate, ferric chloride and H2O2, then desalted on PD-10

[2] = Relaxivity measurements in PBS; assay type: physicochemical; details: 1.4 T, 37° C.
[3] = test system: liver of CCl4 injured mice; assay type: in vivo, mouse; details: for ΔCNR (liver to muscle): 100 μmol/kg i.v., group mean; for ΔCNR of liver, pair-wise comparison: individual mice ID 1-6
Procedure: CCl4 Liver Fibrosis Model:
Male C57BL/6 mice (Charles River Laboratories, Wilmington, MA) were treated with carbon tetrachloride for 12 weeks (0.1 ml of 20% CCl4 in olive oil the first week, 30% the second week, and 40% from weeks 3-12) by oral gavage, 2-3 times per week. Control mice were fed vehicle (olive oil) only.
A total of 53 C57BL/6 mice were included to study CCl4 induced hepatic fibrosis: • A. CCl4 for 12 weeks (n=20). Each mouse was imaged with probe 1 and then imaged again 24 hours later with probe 2. Probe 1 and Probe 2 were randomly chosen from GdDOTA, GdCHyd, Mn-12, Gd-9 and Gd-10. • B. Vehicle treated control (n=20). Each mouse was imaged with probe 1 and then imaged again 24 hours later with probe 2. Probe 1 and Probe 2 were randomly chosen from GdDOTA, Mn-12, GdCHyd, Gd-9, Gd-10. • C. CCl4 for 12 weeks (n=3, another 3 pair-wise comparison have been done in group A). Each mouse was imaged with probe 1 and then imaged again 24 hours later with probe 2. […] Each mouse was imaged with probe 1 and then imaged again 24 hours later with probe 2. Probe 1 and Probe 2 were randomly choosing from Gd-9 and Gd-10. • E. CCl4 for 12 weeks (n=3). Each mouse was imaged with Gd-9. After 24 hours, the same mouse was first injected with 1000 μmol/kg of Yb-9 and then injected with 100 μmol/kg of Gd-9 15 min after the Yb-9 injection.
Animals were anesthetized with isoflurane (1-2%) and placed in a specially designed cradle with body temperature maintained at 37° C. The inhaled isoflurane level was adjusted to maintain a respiration rate of 60±5 breaths per minute. The tail vein was cannulated for intravenous (i.v.) delivery of the contrast agent while the animal was positioned in the scanner. Imaging was performed at 4.7 T using a small bore animal scanner with a custom-built volume coil. Mice were imaged with a dose of 100 μmol/kg from 30 mM stock solution of Gd or Mn complex.
For mice liver imaging, a series of baseline images (3D T1 weighted fast low angle shot magnetic resonance imaging (FLASH)) were first acquired (repetition time/echo time=15/2 ms; flip angle, 30°; field of view, 48×30 mm^2; matrix size, […]; slice thickness, 0.25 mm; acquisition time, 3 minutes 20 seconds), then a bolus of Gd or Mn complex was administered i.v. and imaging performed for a period of 45 min p.i. with the repetition acquisition of 3D T1 weighted FLASH sequences. Following the imaging session, animals were sacrificed (75 min p.i.) and liver tissue was subjected to histopathologic analysis.
For liver imaging analysis, a region of interest (ROI) was manually traced encompassing the liver parenchyma while avoiding major blood vessels. A second ROI was placed on the dorsal muscle visible in the same image slice to quantify the signal intensity in the muscle for comparison. Seven ROIs were placed in the field of view without any tissue (air) to measure the variation in background signal. More than 20 axial slices per mouse across the entire liver were analyzed in this fashion. […] Contrast to noise ratio (CNR) was calculated by measuring the difference in signal intensity (SI) between liver and muscle and normalizing to the standard deviation of the signal in the air, eq 21. ΔCNR was calculated by subtracting CNR measured prior to probe injection (CNRPre) from CNR measured after injection (CNRPost), eq 22. […]

[4] = biological target: bovine serum albumin (BSA) (Bos taurus, UniProt P02769); assay: Relaxivity measurements with BSA; assay type: binding; details: 1.4 T, 37° C., BSA 10 mg/mL
[5] = CCl4 injured mice, 45 min post injection

T1 sequence (P02769 25-607): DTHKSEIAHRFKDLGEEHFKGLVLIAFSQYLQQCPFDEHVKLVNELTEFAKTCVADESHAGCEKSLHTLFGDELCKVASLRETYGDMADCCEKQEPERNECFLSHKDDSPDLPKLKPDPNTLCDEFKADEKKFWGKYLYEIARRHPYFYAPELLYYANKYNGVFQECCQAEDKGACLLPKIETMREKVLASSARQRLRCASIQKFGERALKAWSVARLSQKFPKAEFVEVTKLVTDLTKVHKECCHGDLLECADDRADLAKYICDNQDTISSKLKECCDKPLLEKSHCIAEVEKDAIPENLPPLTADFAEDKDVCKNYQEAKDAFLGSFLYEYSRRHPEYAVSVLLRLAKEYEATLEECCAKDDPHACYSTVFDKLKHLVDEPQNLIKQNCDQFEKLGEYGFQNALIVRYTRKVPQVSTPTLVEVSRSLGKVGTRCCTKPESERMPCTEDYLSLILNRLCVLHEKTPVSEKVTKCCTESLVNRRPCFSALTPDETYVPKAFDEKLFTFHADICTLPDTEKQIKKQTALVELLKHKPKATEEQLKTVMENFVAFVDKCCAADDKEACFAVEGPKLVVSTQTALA
Chain of bovine serum albumin (BSA) (P02769 25-607): as above

Compound	fold higher relaxivity than Gd-CHyd [1] [fold]	higher protein-bound relaxivity than monobinder Gd-CHyd [1] [%]	r1, +BSA-Ald [1]	r1, Bound to BSA-Ald [1] [mM⁻¹ s⁻¹]	increase of r1 in BSA^Ald compared to PBS value [1] [%]	r1, PBS [2] [mM⁻¹ s⁻¹]	fold higher ΔCNR compared to Gd-CHyd (monobinder) ([3]; CCl4 injured mice, 45 min p.i.) [fold]	ΔCNR (liver to muscle) [3, 5]	ΔCNR of liver, With blocking ([3]; CCl4 injured mice, 45 min post injection, blocking dose of Yb-9 (1000 μmol/kg) 15 min before, individual mice ID 1-3)	ΔCNR of liver, Without blocking ([3]; CCl4 injured mice, 45 min post injection, individual mice ID 1-3)	ΔCNR of liver, pair-wise comparison [3, 5]	r1, +BSA [4]	turn-on in relaxivity upon binding to allysine (BSA-Ald bound vs unbound) [1]	turn on in relaxivity ([1]; 1.4T) [%]	fold higher DCNR in CCl4 treated vs vehicle treated mice ([3]; 20 minutes post injection) [fold]
NN1CCN(C(=O)CCC(C(=O)[O-])N2CCN(CC(=O)[O-])CCN(CC(=O)[O-])CCN(C(CCC(=O)N3CCN(N)CC3)C(=O)[O-])CC2)CC1.[Gd+3] (stereo not drawn) [Gd-9, cis-1,4-Gd-(CHyd)2]	2.3	50	11.7 mM⁻¹ s⁻¹ and 11.2 mM⁻¹ s⁻¹	17.7	77	6.6	10	2.2±0.8 and 2.2 ± 0.9	0.1 (2×) and 0.3	3.6 and 2.7 and 3.0	1.9 (2×) and 3.2 and 1.3 and 2.1 and 1.5	6.6 mM⁻¹ s⁻¹ and 6.5 mM⁻¹ s⁻¹			
NN1CCN(C(=O)CCC(C(=O)[O-])N2CCN(CC(=O)[O-])CCN(C(CCC(=O)N3CCN(N)CC3)C(=O)[O-])CCN(CC(=O)[O-])CC2)CC1.[Gd+3] (stereo not drawn) [Gd-10, trans-1,7-Gd-(CHyd)2]			9.0 mM⁻¹ s⁻¹	18.7	36	6.6		1.3±0.4 and 1.5 ± 0.9			1.3 and 2.3 and 1.2 and 0.9 and 1.4 and 1.0	6.6 mM⁻¹ s⁻¹			
NNC(CCC(=O)NCCCN1CCN(CC(=O)[O-])Cc2cccc(n2)CN(CC(=O)[O-])CC1)C(=O)O.[Mn+2] (stereo not drawn) [Mn-15]			5.9 mM⁻¹ s⁻¹	12.7	90	3.1		1.2 ± 0.2				3.6 mM⁻¹ s⁻¹	4 fold and ~3 fold	270	3
NOC(CCC(=O)NCCCN1CCN(CC(=O)[O-])Cc2cccc(n2)CN(CC(=O)[O-])CC1)C(=O)O.[Mn+2] (stereo not drawn) [Mn-16]			7.7 mM⁻¹ s⁻¹	12.7		3.1						3.4 mM⁻¹ s⁻¹	4 fold		
NNCC(=O)NCCCN1CCN(CC(=O)[O-])Cc2cccc(n2)CN(CC(=O)[O-])CC1.[Mn+2] [Mn-17]			5.6 mM⁻¹ s⁻¹	11.4	90	3.0						3.5 mM⁻¹ s⁻¹	4 fold and ~3 fold		
CN(C)C(CCC(=O)NCCCN1CCN(CC(=O)[O-])Cc2cccc(n2)CN(CC(=O)[O-])CC1)C(=O)O.[Mn+2] (stereo not drawn) [Mn-18]			3.6 mM⁻¹ s⁻¹			3.1						3.5 mM⁻¹ s⁻¹			
